Experimental data from ChEMBL document CHEMBL1142404, “Synthesis of 2-modified aristeromycins and their analogs as potent inhibitors against Plasmodium falciparum S-adenosyl-L-homocysteine hydrolase” (Bioorg Med Chem, 2008).

How the values were obtained:
Adenosylhomocysteinase [1] = biological target: Adenosylhomocysteinase (Homo sapiens, UniProt P23526); assay: Inhibition of human SAHH
Adenosylhomocysteinase [2] = biological target: Adenosylhomocysteinase (Plasmodium falciparum 3D7, UniProt P50250); assay: Inhibition of Plasmodium falciparum SAHH
adenosine deaminase = assay: Metabolic stability in presence of calf intestinal adenosine deaminase assessed as compound remaining after 15 mins; type: ADME; conditions: cattle, read-out: Activity

Sequence of Adenosylhomocysteinase (Plasmodium falciparum 3D7, UniProt P50250) (P50250 whole entry): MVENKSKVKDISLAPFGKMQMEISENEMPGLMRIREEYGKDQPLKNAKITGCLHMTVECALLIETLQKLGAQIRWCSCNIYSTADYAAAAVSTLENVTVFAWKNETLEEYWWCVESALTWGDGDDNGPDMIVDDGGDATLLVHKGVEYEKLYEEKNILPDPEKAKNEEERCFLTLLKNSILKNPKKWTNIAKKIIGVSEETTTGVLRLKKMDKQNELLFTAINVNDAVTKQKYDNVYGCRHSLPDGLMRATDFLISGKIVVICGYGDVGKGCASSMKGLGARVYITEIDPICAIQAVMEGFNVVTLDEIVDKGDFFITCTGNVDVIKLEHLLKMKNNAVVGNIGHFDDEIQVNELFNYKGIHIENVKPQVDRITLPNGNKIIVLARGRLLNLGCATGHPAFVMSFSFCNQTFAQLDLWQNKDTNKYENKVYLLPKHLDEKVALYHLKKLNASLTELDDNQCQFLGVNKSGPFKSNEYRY
Sequence of Adenosylhomocysteinase (Homo sapiens, UniProt P23526) (P23526 whole entry): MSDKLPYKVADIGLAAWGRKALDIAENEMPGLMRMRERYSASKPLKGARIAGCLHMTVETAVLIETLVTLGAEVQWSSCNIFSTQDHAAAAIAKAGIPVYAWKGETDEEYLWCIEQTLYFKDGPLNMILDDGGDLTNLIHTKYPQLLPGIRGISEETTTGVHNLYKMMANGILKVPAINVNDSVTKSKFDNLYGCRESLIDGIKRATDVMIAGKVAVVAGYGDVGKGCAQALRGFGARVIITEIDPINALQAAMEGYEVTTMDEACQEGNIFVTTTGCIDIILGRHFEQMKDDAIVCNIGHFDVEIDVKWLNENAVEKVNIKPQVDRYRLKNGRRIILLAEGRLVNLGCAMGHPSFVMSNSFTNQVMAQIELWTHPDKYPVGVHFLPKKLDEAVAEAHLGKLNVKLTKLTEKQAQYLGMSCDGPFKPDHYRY

Nc1nc(N)c2ncn([C@@H]3C[C@H](CO)[C@@H](O)[C@H]3O)c2n1
IC50 (Adenosylhomocysteinase [1]): 90.7 µM
IC50 (Adenosylhomocysteinase [2]): 4.51 µM
remaining at 0.25 h (adenosine deaminase): 95.2%

Nc1nc(F)nc2c1ncn2[C@@H]1C[C@H](CO)[C@@H](O)[C@H]1O
IC50 (Adenosylhomocysteinase [1]): 47.2 µM
IC50 (Adenosylhomocysteinase [2]): 1.98 µM
remaining at 0.25 h (adenosine deaminase): 99.5%

Nc1ncnc2c1ncn2[C@@H]1C[C@H](CO)[C@@H](O)[C@H]1O [ARISTEROMYCIN]
remaining at 0.25 h (adenosine deaminase): 22.4%
